# From US8742106B2 (Novartis AG, priority 2009, dated 2014)
# Key:
# human orexin 1 receptors [1] = target: T1, human orexin 1 receptors (Homo sapiens (Human), UniProt O43613); assay: Calcium Accumulation in Cells (FLIPR), antagonism of orexin A; assay type: cell-based; details: antagonism of orexin A, Cheng-Prusoff corrected; read-out: FLIPR hOx1R Ki
# human orexin 1 receptors [2] = target: T1, human orexin 1 receptors; assay: Radioligand Binding Assay II ([3H]-SB649868 competition, cell membranes); details: read-out: binding II hOx1R Kd
# In short: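 Membranes from CHO or HEK cells expressing human orexin 1 or orexin 2 receptors incubated 1 h at room temperature with about 1 nM [3H]-SB649868 and compound (triplicates) in HEPES pH 7.5 buffer with BSA, MgCl2, CaCl2, tween. Nonspecific binding defined with 10 μM almorexant; filtration read-out, Kd reported.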
# human orexin 2 receptors [3] = target: T2, human orexin 2 receptors (Homo sapiens (Human), UniProt O43614); assay: Calcium Accumulation in Cells (FLIPR), antagonism of orexin A; assay type: cell-based; details: antagonism of orexin A, Cheng-Prusoff corrected; read-out: FLIPR hOx2R Ki
# T2 sequence (O43614 whole entry): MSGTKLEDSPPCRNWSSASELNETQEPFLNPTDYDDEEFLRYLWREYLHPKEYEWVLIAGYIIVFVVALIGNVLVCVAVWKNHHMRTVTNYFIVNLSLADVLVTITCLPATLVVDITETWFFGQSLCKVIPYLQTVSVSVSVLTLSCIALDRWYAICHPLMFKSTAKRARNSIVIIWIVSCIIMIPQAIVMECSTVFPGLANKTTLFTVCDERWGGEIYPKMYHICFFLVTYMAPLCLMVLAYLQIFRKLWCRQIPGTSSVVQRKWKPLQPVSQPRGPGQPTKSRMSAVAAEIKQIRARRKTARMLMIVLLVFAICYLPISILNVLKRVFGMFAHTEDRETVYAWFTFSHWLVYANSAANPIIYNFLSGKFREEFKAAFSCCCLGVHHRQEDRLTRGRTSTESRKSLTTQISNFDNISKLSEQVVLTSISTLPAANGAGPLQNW
# In short: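 Antagonism was measured as block of orexin A-evoked Ca²⁺ fluorescence (FLIPR), with orexin A added one hour after test compound (usually 10^−9–10^−5 M), which was first read alone for agonist activity. Human orexin 2 receptor cells were dye-loaded with 2 μM Fluo4-AM and 0.1 mM probenecid for 1 h.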
# human orexin 2 receptors [4] = target: T2, human orexin 2 receptors; assay: Radioligand Binding Assay II ([3H]-SB649868 competition, cell membranes); details: read-out: binding II hOx2R Kd
# In short: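 Competition binding used membranes from CHO or HEK cells expressing human orexin 2 receptor, incubated 1 h at room temperature with ~1 nM [3H]-SB649868 in 10 mM HEPES pH 7.5, 0.5% BSA, 5 mM MgCl2, 1 mM CaCl2, 0.05% tween. Nonspecific binding was defined with 10 μM almorexant, and bound activity was measured after filtration.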
# human orexin 2 receptors [5] = target: T2, human orexin 2 receptors; assay: Radioligand Binding Assay I ([125I]orexin A competition, cell membranes); details: read-out: binding I hOx2R Kd
# Protocol: (§1) Radioligand Binding Assay I
# (§2) For crude cell membrane preparations, cells (CHO, Chinese hamster ovary or HEK, human embryonic kidney) expressing human orexin 1 or human orexin 2 receptors, were washed with HEPES (10 mM, pH 7.5), scraped off the culture plates with the same buffer, and centrifuged at 4° C. for 5 min at 2500×g. The cell pellet was either stored at −80° C. or used directly. Before the experiments, cell membranes were re-suspended in binding assay buffer (10 mM HEPES, 0.5% (w/v) bovine serum albumin, pH 7.5) by homogenisation with a Polytron homogeniser at 50 Hz for 20 s. Cell membranes were also used as made available by commercial providers.
# (§3) In initial saturation experiments (to calculate Bmax), cell homogenates (150 μl) were incubated with 25-300 pM of the radioligand ([^125I]orexin A, 50 μl), 8 concentrations in triplicates in the presence or absence Orexin A (1 μM, 50 μl) to define non specific binding. Bound radioactivity was measured, and data were analysed with the program XLFIT or Graphpad Prism. Protein concentration was determined according to the Bradford/BioRad Protein Assay Kit.
# (§4) In competition experiments, cell homogenates (150 μl) were incubated in assay buffer (10 mM HEPES, pH 7.5, 0.5% (w/v) bovine serum albumin, 5 mM MgCl2, 1 mM CaCl2, and tween 0.05%) for 1 h at room temperature with about 100 pM of the radioligand ([^125I]orexin A, 2100 Ci/mmole, 50 μl), and with various concentrations of compounds of the invention (50 μl) in triplicates; non-specific binding was determined in the presence of Orexin A (1 μM). Reactions were terminated by vacuum filtration, 3 washes of ice cold wash buffer (Tris-HCl pH 7.4/10 mM, with NaCl 154 mM).
# human orexin 1 receptors [6] = target: T1, human orexin 1 receptors; assay: as above; details: read-out: binding I hOx1R Kd
# Protocol: as §1, §2, §3, §4
# T1 sequence (O43613 whole entry): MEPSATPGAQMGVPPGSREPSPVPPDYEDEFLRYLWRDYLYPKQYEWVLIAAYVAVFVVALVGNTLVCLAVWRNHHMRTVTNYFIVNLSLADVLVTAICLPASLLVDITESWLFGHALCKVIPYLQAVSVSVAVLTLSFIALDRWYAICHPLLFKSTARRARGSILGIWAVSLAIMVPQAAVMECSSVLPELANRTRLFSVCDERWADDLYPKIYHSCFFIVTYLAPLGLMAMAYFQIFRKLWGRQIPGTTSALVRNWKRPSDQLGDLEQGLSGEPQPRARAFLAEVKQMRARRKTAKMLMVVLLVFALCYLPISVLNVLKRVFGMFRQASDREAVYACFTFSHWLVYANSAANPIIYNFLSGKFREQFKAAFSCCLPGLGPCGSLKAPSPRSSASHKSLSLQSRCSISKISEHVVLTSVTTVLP
structure (smiles),measurement,setting,value
"COc1ccc([C@H](C)NC(=O)COc2cc(C(F)(F)F)c3c(-c4ccccc4)nn(C)c3n2)cc1 [Example 1.4, (S)—N-(1-(4-methoxyphenyl)ethyl)-2-(1-methyl-3-phenyl-4-(trifluoromethyl)-1H-pyrazolo[3,4-b]pyridin-6-yloxy)acetamide]",melting point,,172 to 174 °C
same,Ki,human orexin 1 receptors [1],14 nM
same,Kd,human orexin 1 receptors [2],7 nM
same,Ki,human orexin 2 receptors [3],2 nM
same,Kd,human orexin 2 receptors [4],3 nM
same,Kd,human orexin 2 receptors [5],4 nM
same,Kd,human orexin 1 receptors [6],8 nM
